# Reference: article PMC12211128, “Safety, tolerability, pharmacokinetic and pharmacodynamic effects of the muscarinic M1 positive allosteric modulator VU0467319 for Alzheimer’s disease: a single ascending-dose study in healthy participants” (Alzheimer's Research & Therapy, 2025)
# What was measured:
# healthy participants [1] = test: Choice reaction time task (CRT); type: in vivo, human; details: for CRT Median Motor Time / CRT Median Recognition Time / CRT Median Total Time: mean (SD)
# Description: (§1) The choice reaction time (CRT; [31]) task was used to measure psychomotor speed. Outcome variables on the CRT were the median total reaction time, which can be broken down into the recognition time (time from stimulus onset to initiation of movement), and the motor reaction time (time from initiation of movement to stimulus termination).
# (§2) Cognitive data: In this exploratory analysis, each outcome variable of the cognitive data was examined in a mixed model analysis of variance with one between-subjects factor of VU319 dose (0, 60, 120, 240, 400, 600 mg) and a within-subjects factor of testing session (pre-dose vs. post-dost administration). Post-hoc analysis compared each of the VU319 dose cohorts against the placebo group. Because the participants were healthy adults with normal cognitive function, we considered effects between no reductions in function to small improvement (d = 0.0–0.20) to be a positive result. For the food effect study, only the participants who received VU319 were examined due to the disproportionately small placebo group (n = 2). A within-subjects ANOVA including food condition (fasted/fed) and testing session (pre-dose vs. post-dose administration) was performed on each outcome variable.
# as §1, with “(Hindmarch, 1984))” for “[31])”
# healthy participants [2] = test: Selective Reminding Task (SRT); type: in vivo, human; details: for SRT Delayed Recall / SRT Immediate Recall / SRT Recall Consistency / SRT Recall Failure: mean (SD)
# Description: The Selective Reminding Task (SRT; [36]) was used to test immediate and delayed episodic memory. Participants were read a list of 16 words and must immediately recall the list across eight trials, then again after a 20-minute delay. The outcome measures were the SRT total immediate recall across the eight trials, recall consistency as the number of words correctly recalled on two sequential trials, recall failure as the number of words not recalled on two sequential trials, and the delayed recall after the 20-min delay.
# as §2
# The Selective Reminding Task (SRT; (Buschke & Fuld, 1974)) was used to test immediate and delayed episodic recall. Participants were read a list of 16 words and must immediately recall the list across 8 trials. […] Upon completing the immediate recall portion of the SRT and after a 20‐minute delay, participants were asked to complete a single delayed recall trial. SRT total immediate recall was analyzed using the number of correctly recalled words across trials 1–8, total immediate recall consistency was analyzed using the number of words correctly recalled on two sequential trials across trials 1–8, SRT total immediate recall failure was analyzed using the number of words not recalled on two sequential trials across trials 1–8, and total delayed recall was analyzed using the number of words correctly recalled after a 20-min delay.
# [3] = Food effect study 120 mg, Fasting, Post-Drug
# [4] = Food effect study 120 mg, Fasting, Pre-Drug
# [5] = Food effect study 120 mg, Fed, Post-Drug
# [6] = Food effect study 120 mg, Fed, Pre-Drug
compound,measurement,setting,value
Cn1cc2c(-c3cc(F)c(CN4Cc5ncccc5C4=O)c(F)c3)cccc2n1 [VU319],CRT Median Motor Time,healthy participants [1]; [3],299.2 (24.19) ms
same,CRT Median Recognition Time,healthy participants [1]; [3],370.55 (33.17) ms
same,CRT Median Total Time,healthy participants [1]; [3],679.55 (35.68) ms
same,CRT Median Motor Time,healthy participants [1]; [4],302 (40.02) ms
same,CRT Median Recognition Time,healthy participants [1]; [4],384.9 (53.58) ms
same,CRT Median Total Time,healthy participants [1]; [4],691.25 (64.17) ms
same,CRT Median Motor Time,healthy participants [1]; [5],297.25 (36.2) ms
same,CRT Median Recognition Time,healthy participants [1]; [5],369.4 (41.57) ms
same,CRT Median Total Time,healthy participants [1]; [5],673.65 (47.86) ms
same,CRT Median Motor Time,healthy participants [1]; [6],321.5 (36.67) ms
same,CRT Median Recognition Time,healthy participants [1]; [6],365.45 (41.27) ms
same,CRT Median Total Time,healthy participants [1]; [6],695.7 (47.32) ms
same,CRT Median Motor Time,"healthy participants [1]; SAD study, 60 mg, Post-Drug",330.42 (64.58) ms
same,CRT Median Recognition Time,"healthy participants [1]; SAD study, 60 mg, Post-Drug",394.92 (82.56) ms
same,CRT Median Total Time,"healthy participants [1]; SAD study, 60 mg, Post-Drug",734.25 (120.68) ms
same,CRT Median Motor Time,"healthy participants [1]; SAD study, 60 mg, Pre-Drug",331.08 (35.75) ms
same,CRT Median Recognition Time,"healthy participants [1]; SAD study, 60 mg, Pre-Drug",391.33 (59.93) ms
same,CRT Median Total Time,"healthy participants [1]; SAD study, 60 mg, Pre-Drug",735.08 (60.61) ms
same,CRT Median Motor Time,"healthy participants [1]; SAD study, 120 mg, Post-Drug",332.67 (89.6) ms
same,CRT Median Recognition Time,"healthy participants [1]; SAD study, 120 mg, Post-Drug",389 (43.6) ms
same,CRT Median Motor Time,"healthy participants [1]; SAD study, 120 mg, Pre-Drug",329.08 (80.22) ms
same,CRT Median Recognition Time,"healthy participants [1]; SAD study, 120 mg, Pre-Drug",384.92 (42.09) ms
same,CRT Median Total Time,"healthy participants [1]; SAD study, 120 mg, Pre-Drug",718.58 (103.36) ms
same,CRT Median Motor Time,"healthy participants [1]; SAD study, 240 mg, Post-Drug",353.25 (69.11) ms
same,CRT Median Recognition Time,"healthy participants [1]; SAD study, 240 mg, Post-Drug",399 (83.54) ms
same,CRT Median Total Time,"healthy participants [1]; SAD study, 240 mg, Post-Drug",759.42 (151.55) ms
same,CRT Median Motor Time,"healthy participants [1]; SAD study, 240 mg, Pre-Drug",374.58 (64.5) ms
same,CRT Median Recognition Time,"healthy participants [1]; SAD study, 240 mg, Pre-Drug",410.5 (68.61) ms
same,CRT Median Total Time,"healthy participants [1]; SAD study, 240 mg, Pre-Drug",800.92 (121.25) ms
same,CRT Median Motor Time,"healthy participants [1]; SAD study, 400 mg, Post-Drug",334.33 (33) ms
same,CRT Median Recognition Time,"healthy participants [1]; SAD study, 400 mg, Post-Drug",388.17 (40.47) ms
same,CRT Median Total Time,"healthy participants [1]; SAD study, 400 mg, Post-Drug",728.92 (57.1) ms
same,CRT Median Motor Time,"healthy participants [1]; SAD study, 400 mg, Pre-Drug",331 (38.55) ms
same,CRT Median Recognition Time,"healthy participants [1]; SAD study, 400 mg, Pre-Drug",396.67 (41.84) ms
same,CRT Median Total Time,"healthy participants [1]; SAD study, 400 mg, Pre-Drug",731 (55.14) ms
same,CRT Median Motor Time,"healthy participants [1]; SAD study, 600 mg, Post-Drug",282.33 (56.95) ms
same,CRT Median Recognition Time,"healthy participants [1]; SAD study, 600 mg, Post-Drug",362.67 (52.01) ms
same,CRT Median Total Time,"healthy participants [1]; SAD study, 600 mg, Post-Drug",649.58 (71.76) ms
same,CRT Median Motor Time,"healthy participants [1]; SAD study, 600 mg, Pre-Drug",291.42 (46.98) ms
same,CRT Median Recognition Time,"healthy participants [1]; SAD study, 600 mg, Pre-Drug",364.92 (18.0) ms
same,CRT Median Total Time,"healthy participants [1]; SAD study, 600 mg, Pre-Drug",662.17 (61.66) ms
same,"CRT total, recognition and motor time, effect of dose","healthy participants [1]; SAD study, all p > 0.1","no effect of dose, session, nor a dose by session interaction"
same,"CRT recognition time, food condition by session interaction, effect size d","healthy participants [1]; food effect study, 120 mg, p = 0.027, quicker recognition post-dose in fasted condition",1.76
same,SRT Delayed Recall,healthy participants [2]; [3],11.3 (3.97)
same,SRT Immediate Recall,healthy participants [2]; [3],88.9 (19.83)
same,SRT Recall Consistency,healthy participants [2]; [3],55.7 (26.22)
same,SRT Recall Failure,healthy participants [2]; [3],10.2 (9.74)
same,SRT Delayed Recall,healthy participants [2]; [4],11.5 (3.69)
same,SRT Immediate Recall,healthy participants [2]; [4],86.6 (17.61)
same,SRT Recall Consistency,healthy participants [2]; [4],51.1 (24.64)
same,SRT Recall Failure,healthy participants [2]; [4],9.4 (8.54)
same,SRT Delayed Recall,healthy participants [2]; [5],10.9 (3.92)
same,SRT Immediate Recall,healthy participants [2]; [5],88.9 (20.45)
same,SRT Recall Consistency,healthy participants [2]; [5],53.4 (27.22)
same,SRT Recall Failure,healthy participants [2]; [5],8.3 (10.58)
same,SRT Delayed Recall,healthy participants [2]; [6],11.2 (3.33)
same,SRT Immediate Recall,healthy participants [2]; [6],88.7 (13.59)
same,SRT Recall Consistency,healthy participants [2]; [6],54 (18.33)
same,SRT Recall Failure,healthy participants [2]; [6],8 (6.11)
same,SRT Delayed Recall,"healthy participants [2]; SAD study, 60 mg, Post-Drug",8.83 (3.55)
same,SRT Immediate Recall,"healthy participants [2]; SAD study, 60 mg, Post-Drug",71.67 (14.95)
same,SRT Recall Consistency,"healthy participants [2]; SAD study, 60 mg, Post-Drug",35.33 (18.32)
same,SRT Recall Failure,"healthy participants [2]; SAD study, 60 mg, Post-Drug",19.83 (9.37)
same,SRT Delayed Recall,"healthy participants [2]; SAD study, 60 mg, Pre-Drug",9 (3.52)
same,SRT Immediate Recall,"healthy participants [2]; SAD study, 60 mg, Pre-Drug",79.83 (13.18)
same,SRT Recall Consistency,"healthy participants [2]; SAD study, 60 mg, Pre-Drug",44 (22.93)
same,SRT Recall Failure,"healthy participants [2]; SAD study, 60 mg, Pre-Drug",13.5 (4.46)
same,SRT Delayed Recall,"healthy participants [2]; SAD study, 120 mg, Post-Drug",9.5 (5.86)
same,SRT Immediate Recall,"healthy participants [2]; SAD study, 120 mg, Post-Drug",84 (19.55)
same,SRT Recall Consistency,"healthy participants [2]; SAD study, 120 mg, Post-Drug",49.33 (25.15)
same,SRT Recall Failure,"healthy participants [2]; SAD study, 120 mg, Post-Drug",12.5 (10.78)
same,SRT Delayed Recall,"healthy participants [2]; SAD study, 120 mg, Pre-Drug",10.17 (5.42)
same,SRT Immediate Recall,"healthy participants [2]; SAD study, 120 mg, Pre-Drug",84.67 (20.24)
same,SRT Recall Consistency,"healthy participants [2]; SAD study, 120 mg, Pre-Drug",51.67 (27.6)
same,SRT Recall Failure,"healthy participants [2]; SAD study, 120 mg, Pre-Drug",13 (9.76)
same,SRT Delayed Recall,"healthy participants [2]; SAD study, 240 mg, Post-Drug",9 (2.45)
same,SRT Immediate Recall,"healthy participants [2]; SAD study, 240 mg, Post-Drug",80.67 (13.65)
same,SRT Recall Consistency,"healthy participants [2]; SAD study, 240 mg, Post-Drug",41.5 (16.11)
same,SRT Recall Failure,"healthy participants [2]; SAD study, 240 mg, Post-Drug",10.83 (10.83)
same,SRT Delayed Recall,"healthy participants [2]; SAD study, 240 mg, Pre-Drug",10.67 (1.86)
same,SRT Immediate Recall,"healthy participants [2]; SAD study, 240 mg, Pre-Drug",87.33 (11.38)
same,SRT Recall Consistency,"healthy participants [2]; SAD study, 240 mg, Pre-Drug",54.33 (13.31)
same,SRT Recall Failure,"healthy participants [2]; SAD study, 240 mg, Pre-Drug",10.83 (7.73)
same,SRT Delayed Recall,"healthy participants [2]; SAD study, 400 mg, Post-Drug",7.83 (3.87)
same,SRT Immediate Recall,"healthy participants [2]; SAD study, 400 mg, Post-Drug",70.83 (16.03)
same,SRT Recall Consistency,"healthy participants [2]; SAD study, 400 mg, Post-Drug",33.33 (18.24)
same,SRT Recall Failure,"healthy participants [2]; SAD study, 400 mg, Post-Drug",20 (11.15)
same,SRT Delayed Recall,"healthy participants [2]; SAD study, 400 mg, Pre-Drug",8.83 (4.79)
same,SRT Immediate Recall,"healthy participants [2]; SAD study, 400 mg, Pre-Drug",76.33 (24.51)
same,SRT Recall Consistency,"healthy participants [2]; SAD study, 400 mg, Pre-Drug",42.33 (29.85)
same,SRT Recall Failure,"healthy participants [2]; SAD study, 400 mg, Pre-Drug",19 (15.66)
same,SRT Delayed Recall,"healthy participants [2]; SAD study, 600 mg, Post-Drug",8.67 (4.8)
same,SRT Immediate Recall,"healthy participants [2]; SAD study, 600 mg, Post-Drug",85.83 (21.7)
same,SRT Recall Consistency,"healthy participants [2]; SAD study, 600 mg, Post-Drug",51 (27.8)
same,SRT Recall Failure,"healthy participants [2]; SAD study, 600 mg, Post-Drug",10.67 (12.58)
same,SRT Delayed Recall,"healthy participants [2]; SAD study, 600 mg, Pre-Drug",11.83 (1.94)
same,SRT Immediate Recall,"healthy participants [2]; SAD study, 600 mg, Pre-Drug",91.17 (11.81)
same,SRT Recall Consistency,"healthy participants [2]; SAD study, 600 mg, Pre-Drug",59.83 (13.39)
same,SRT Recall Failure,"healthy participants [2]; SAD study, 600 mg, Pre-Drug",8.17 (5.27)
same,"SRT four outcome measures, effect of dose","healthy participants [2]; SAD study, all p > 0.2","did not show a significant effect of dose, nor dose by time"
same,"SRT performance, effect of food or time","healthy participants [2]; food effect study, 120 mg",no impact of food or time
